Assay results: patent US20100137275A1 (IPSEN PHARMA S.A.S., priority 2007, published 2010)

How the values were obtained:
[1] = target: T1, purified recombinant Cdc25-C enzyme (MBP-Cdc25C protein) (Homo sapiens, UniProt P30307); experiment: Phosphatase activity of the purified recombinant Cdc25C enzyme (OMFP dephosphorylation, fluorescence); type: biochemical; settings: OMFP 500 μM, 4 hours at 30° C.
T1 construct: made in house
T1 sequence (P30307 1-473): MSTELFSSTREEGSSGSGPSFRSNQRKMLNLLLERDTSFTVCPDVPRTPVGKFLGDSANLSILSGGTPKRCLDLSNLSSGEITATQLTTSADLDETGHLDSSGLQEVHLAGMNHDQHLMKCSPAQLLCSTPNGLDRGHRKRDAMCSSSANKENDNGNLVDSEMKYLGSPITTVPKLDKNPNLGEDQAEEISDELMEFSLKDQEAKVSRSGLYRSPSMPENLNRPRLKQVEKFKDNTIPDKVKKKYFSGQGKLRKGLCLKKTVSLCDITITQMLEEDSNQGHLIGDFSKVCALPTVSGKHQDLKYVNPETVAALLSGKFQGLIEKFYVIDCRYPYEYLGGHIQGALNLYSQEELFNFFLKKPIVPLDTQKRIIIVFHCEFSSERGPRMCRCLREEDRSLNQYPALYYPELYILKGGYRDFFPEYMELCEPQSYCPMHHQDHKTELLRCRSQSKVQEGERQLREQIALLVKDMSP
Protocol: The phosphatase activity of the MBP-Cdc25C protein is evaluated through its dephosphorylation of 3-O-methylfluorescein-phosphate (OMFP) to form 3-O-methylfluorescein (OMF), determining the fluorescence of the reaction product at 475 nm. This assay can be used to identify inhibitors of the recombinant Cdc25 enzyme. The preparation of the MBP-Cdc25C fusion protein is described in patent application PCT WO 01/44467.
The reaction is performed in 384-well plates in a final volume of 50 μl. The MBP-Cdc25C protein (prepared as described hereinabove) is stored in the following elution buffer: 20 mM Tris-HCl pH 7.4; 250 mM NaCl; 1 mM EDTA; 1 mM dithiothreitol (DTT); 10 mM maltose. It is diluted to a concentration of 60 μM in the following reaction buffer: 50 mM Tris-HCl pH 8.2; 50 mM NaCl; 1 mM DTT; 20% glycerol. The background noise is determined using with the buffer without addition of the enzyme. The products are tested at decreasing concentrations from 40 μM. The reaction is initiated by the addition of a solution OMFP to a final concentration of 500 μM (prepared immediately before use from a 12.5 mM stock solution in 100% DMSO (Sigma #M2629)). After 4 hours at 30° C. in a disposable 384-well plate, the fluorescence measured at OD 475 nm is read on a Victor^2 plate reader (EGG-Wallac). The concentration that produces 50% inhibition of the enzyme reaction is calculated from three independent experiments. Only the values that fall within the linear part of the sigmoid curve are used for the linear regression analysis.

[2] = tested on: Mia-PaCa2 (human pancreas cancer cells); experiment: Anti-proliferative activity on Mia-Paca2 cell line (WST1 colorimetric test); type: cell-based; settings: MIA PaCa-2, 96 h, 96 hours treatment, read-out: IC50 on proliferation of the Mia-Paca2 cell line
Protocol: (§1) By way of an example, the effect of treating two human cell lines Mia-Paca2 and DU145 with the compounds of the examples described hereinbefore will be studied. The cell lines DU145 (human prostate cancer cells) and Mia-PaCa2 (human pancreas cancer cells) were obtained from the American Tissue Culture Collection (Rockville, Md., USA). A 96-well plate was inoculated on day 0 with cells placed in 80 μl of Dulbecco's modified Eagle's medium (Gibco-Brl, Cergy-Pontoise, France) with 10% heat-inactivated foetal calf serum (Gibco-Brl, Cergy-Pontoise, France), 50000 units/1 of penicillin and 50 mg/l of streptomycin (Gibco-Brl, Cergy-Pontoise, France), and 2 mM of glutamine (Gibco-Brl, Cergy-Pontoise, France). The cells were treated on day 1 with increasing concentrations of each test compound up to 10 μM for 96 hours. At the end of this period, cell proliferation is quantified by means of a colorimetric test based on cleavage of the tetrazolium salt WST1 by the mitochondrial dehydrogenases in the viable cells, resulting in formation of formazan (Boehringer Mannheim, Meylan, France). These tests are performed in duplicate with 8 determinations per concentration tested. For each compound to be tested, the values within the linear part of the sigmoid curve were subjected to linear regression analysis and used to estimate the IC50 inhibitory concentration. The products are solubilised in dimethylsulfoxide (DMSO) at a concentration of 10^−2 M and used in culture with a final DMSO concentration of 0.1%.

[3] = tested on: DU145 (human prostate cancer cells); experiment: Anti-proliferative activity on DU-145 cell line (WST1 colorimetric test); type: cell-based; settings: DU-145, 96 h, 96 hours treatment, read-out: IC50 on the proliferation of the DU-145 cell line
Protocol: as §1

IC50 [1] [µM]	IC50 [2] [µM]	melting point [°C]	IC50 [3] [µM]	Structure (SMILES)
≤ 5	≤ 5	110 to 112	–	CC(Oc1ccccc1)C(=O)NCCN(C)CCNc1cc(N2CCCC2)nc(N2CCCC2)n1 (stereo not shown) [Example 84, N-{2-[{2-[(2,6-dipyrrolidin-1-ylpyrimidin-4-yl)amino]ethyl}(methyl)amino]ethyl}-2-phenoxypropanamide]
≤ 1	≤ 5	144 to 145	–	CN(CCNc1cc(N2CCCC2)nc(N2CCCC2)n1)CCNS(=O)(=O)c1ccc([N+](=O)[O-])cc1 [Example 87, N-{2-[{2-[(2,6-dipyrrolidin-1-ylpyrimidin-4-yl)amino]ethyl}(methyl)amino]ethyl}-4-nitrobenzenesulfonamide]
≤ 1	–	76 to 78	≤ 5	CN(CCNC(=S)Nc1ccc(Cl)cc1)CCNc1cc(N2CCCCC2)nc(N2CCCCC2)n1 [Example 69, N-(4-chlorophenyl)-N′-{2-[{2-[(2,6-dipiperidin-1-ylpyrimidin-4-yl)amino]ethyl}(methyl)amino]ethyl}thiourea]
≤ 1	–	192 to 194	≤ 5	CN(CCNC(=S)Nc1ccc(C(C)(C)C)cc1)CCNc1cc(N2CCCC2)nc(N2CCCC2)n1 [Example 44, N-(4-tert-butylphenyl)-N′-{2-[{2-[(2,6-dipyrrolidin-1-ylpyrimidin-4-yl)amino]ethyl}(methyl)amino]ethyl}thiourea]
≤ 5	≤ 5	171 to 173	–	CN(CCNC(=O)C1CCN(c2nccc(C(F)(F)F)n2)CC1)CCNc1cc(N2CCCC2)nc(N2CCCC2)n1 [Example 86, N-{2-[{2-[(2,6-dipyrrolidin-1-ylpyrimidin-4-yl)amino]ethyl}(methyl)amino]ethyl}-1-[4-(trifluoromethyl)pyrimidin-2-yl]piperidine-4-carboxamide]
–	≤ 5	142 to 144	–	CCNc1cc(NCCN(C)CCNC(=S)Nc2ccc(Cl)cc2)nc(NCC)n1 [Example 79, N-{2-[(2-{[2,6-bis(ethylamino)pyrimidin-4-yl]amino}ethyl)(methyl)amino]ethyl}-N′-(4-chlorophenyl)thiourea]
≤ 5	≤ 5	–	–	CN(C)CCN(C)c1cc(NCCN(C)CCNC(=S)Nc2ccc(Cl)cc2)nc(N(C)CCN(C)C)n1 [Example 64, N-{2-[[2-({2,6-bis[[2-(dimethylamino)ethyl](methyl)amino]pyrimidin-4-yl}amino)ethyl](methyl)amino]ethyl}-N′-(4-chlorophenyl)thiourea]
≤ 5	≤ 5	139 to 140	–	CN(CCNC(=O)c1cccc2c1-c1ccccc1C2=O)CCNc1cc(N2CCCC2)nc(N2CCCC2)n1 [Example 85, N-{2-[{2-[(2,6-dipyrrolidin-1-ylpyrimidin-4-yl)amino]ethyl}(methyl)amino]ethyl}-9-oxo-9H-fluorene-4-carboxamide]

More lines, now with the values behind:

Structure (SMILES)	IC50 [1] [µM]	IC50 [2] [µM]	melting point [°C]	IC50 [3] [µM]
CN(CCNC(=S)Nc1ccc(Oc2ccccc2)nc1)CCNc1cc(N2CCCC2)nc(N2CCCC2)n1 [Example 30, N-{2-[{2-[(2,6-dipyrrolidin-1-ylpyrimidin-4-yl)amino]ethyl}(methyl)amino]ethyl}-N′-(6-phenoxypyridin-3-yl)thiourea]	≤ 5	–	104 to 106	≤ 5
CN(CCNC(=S)Nc1ccc(-c2cnco2)cc1)CCNc1cc(N2CCCC2)nc(N2CCCC2)n1 [Example 33, N-{2-[{2-[(2,6-dipyrrolidin-1-ylpyrimidin-4-yl)amino]ethyl}(methyl)amino]ethyl}-N′-[4-(1,3-oxazol-5-yl)phenyl]thiourea]	≤ 5	–	104 to 106	≤ 5
CN(CCNC(=S)Nc1ccc(F)cc1)CCNc1cc(N2CCCC2)nc(N2CCCC2)n1 [Example 24, N-{2-[{2-[(2,6-dipyrrolidin-1-ylpyrimidin-4-yl)amino]ethyl}(methyl)amino]ethyl}-N′-(4-fluorophenyl)thiourea]	≤ 5	–	115 to 117	≤ 5
CN(CCNC(=S)Nc1ccc(OC(F)(F)F)cc1)CCNc1cc(N2CCCC2)nc(N2CCCC2)n1 [Example 23, N-{2-[{2-[(2,6-dipyrrolidin-1-ylpyrimidin-4-yl)amino]ethyl}(methyl)amino]ethyl}-N′-[4-(trifluoromethoxy)phenyl]thiourea]	≤ 5	–	118 to 120	≤ 5
CN(CCNC(=S)NCc1ccco1)CCNc1cc(N2CCCC2)nc(N2CCCC2)n1 [Example 29, N-{2-[{2-[(2,6-dipyrrolidin-1-ylpyrimidin-4-yl)amino]ethyl}(methyl)amino]ethyl}-N′-(2-furylmethyl)thiourea]	≤ 5	≤ 5	–	≤ 5
CN(CCNC(=S)Nc1cccnc1)CCNc1cc(N2CCCC2)nc(N2CCCC2)n1 [Example 26, N-{2-[{2-[(2,6-dipyrrolidin-1-ylpyrimidin-4-yl)amino]ethyl}(methyl)amino]ethyl}-N′-pyridin-3-ylthiourea]	≤ 1	≤ 5	107 to 109	–
CN(CCNC(=S)Nc1ccc(Oc2ccccc2)cc1)CCNc1cc(N2CCCC2)nc(N2CCCC2)n1 [Example 36, N-{2-[{2-[(2,6-dipyrrolidin-1-ylpyrimidin-4-yl)amino]ethyl}(methyl)amino]ethyl}-N′-(4-phenoxyphenyl)thiourea]	≤ 5	–	79 to 81	≤ 5
COc1ccc(NC(=S)NCCN(C)CCNc2cc(N3CCCC3)nc(N3CCCC3)n2)cc1 [Example 35, N-{2-[{2-[(2,6-dipyrrolidin-1-ylpyrimidin-4-yl)amino]ethyl}(methyl)amino]ethyl}-N′-(4-methoxyphenyl)thiourea]	≤ 5	–	127 to 129	≤ 5
CN(CCNC(=S)Nc1cccc2ccccc12)CCNc1cc(N2CCCC2)nc(N2CCCC2)n1 [Example 37, N-{2-[{2-[(2,6-dipyrrolidin-1-ylpyrimidin-4-yl)amino]ethyl}(methyl)amino]ethyl}-N′-1-naphthylthiourea]	≤ 5	–	87 to 89	≤ 5
CN(CCNC(=O)Nc1cccs1)CCNc1cc(N2CCCC2)nc(N2CCCC2)n1 [Example 10, N-{2-[{2-[(2,6-dipyrrolidin-1-ylpyrimidin-4-yl)amino]ethyl}(methyl)amino]ethyl}-N′-2-thienylurea]	≤ 1	–	133 to 135	≤ 5
CN(CCCNC(=O)Nc1ccc(Cl)c(C(F)(F)F)c1)CCCNc1cc(N2CCCC2)nc(N2CCCC2)n1 [Example 21, N-[4-chloro-3-(trifluoromethyl)phenyl]-N′-{3-[{3-[(2,6-dipyrrolidin-1-ylpyrimidin-4-yl)amino]propyl}(methyl)amino]propyl}urea]	≤ 5	≤ 5	–	≤ 5
